Values quoted from earlier work in article PMC9160825, “Structural and Functional Characterization of a Novel Scorpion Toxin that Inhibits NaV1.8 via Interactions With the DI Voltage Sensor and DII Pore Module” (Frontiers in Pharmacology, 2022).

Legend:
[1] = test system: DRG nociceptive sensory neurons
Source text: In addition to modifying activation and fast inactivation gating, NaTx36 modifies slow inactivation gating in OtNaV1.8 by substantially shifting the voltage dependence to hyperpolarized membrane potentials (Figure 5B). Slow inactivation differs from fast inactivation in voltage- and time-dependent properties. While fast inactivation inhibits NaV excitability within milliseconds of action potential firing, slow inactivation develops in response to prolonged membrane depolarization (tens of seconds) or a series of action potentials, inhibiting NaV excitability over longer timescales (seconds to ...

house mouse NaV1.8 = conditions: ref Zhang and Bean, 2021
[2] = test system: sodium channel DI voltage sensor; design: method as in Xiao et al., 2014; conditions: ref Xiao et al., 2014

## COc1cc(CNC(=O)CCCC/C=C/C(C)C)ccc1O [capsaicin]
[1]; sustained excitation of DRG membranes, ref Blair and Bean, 2003
  NaV1.8 TTX-R Na+ currents and action potential firing: caused a decrease in NaV1.8 TTX-R Na^+ currents and action potential firing

## C=C(C)[C@@H]1CCC(C)=C[C@H]1c1c(O)cc(CCCCC)cc1O [CBD, cannabidiol]
[1]; ref Zhang and Bean, 2021
  repetitive action potential firing and DRG neuronal excitability: reduces repetitive action potential firing and DRG neuronal excitability
House mouse NaV1.8
  inhibition of house mouse NaV1.8: inhibited house mouse NaV1.8 in a state-dependent manner

## ProTx-II: spider toxin
[2]
  effect on gating pore currents via DI voltage sensor: modify the voltage dependence of gating pore currents
